For 19 molecules, IC50 results are on record in US11691969B2, “Pyridazinones as PARP7 inhibtors” (Ribon Therapeutics, Inc., priority 2019, dated 2023).

The IC50 is the concentration that gives 50% inhibition. Higher therefore signals weaker potency in that assay.

This assay addresses PARP7 (Homo sapiens (Human), UniProt Q7Z3E1). In words: TR-FRET assay: displacement of biotinylated Probe A from the TIPARP active site (Enzymatic Assay for Inhibition of PARP7). It counts as binding. The note with it: TIPARP 6 nM, Probe A 2 nM, 25° C. In outline: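 6 nM His-tagged TIPARP and 2 nM biotinylated Probe A preincubated with compound 30 min at 25 °C in HEPES pH 8 buffer, then 4 nM ULight-anti-6×His and 0.25 nM Eu-streptavidin added for 30 min more. 665/615 nm ratio normalised to DMSO and 100 μM reference inhibitor controls; IC50 from 4-parameter fit.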

Chain of PARP7 (Q7Z3E1 whole entry): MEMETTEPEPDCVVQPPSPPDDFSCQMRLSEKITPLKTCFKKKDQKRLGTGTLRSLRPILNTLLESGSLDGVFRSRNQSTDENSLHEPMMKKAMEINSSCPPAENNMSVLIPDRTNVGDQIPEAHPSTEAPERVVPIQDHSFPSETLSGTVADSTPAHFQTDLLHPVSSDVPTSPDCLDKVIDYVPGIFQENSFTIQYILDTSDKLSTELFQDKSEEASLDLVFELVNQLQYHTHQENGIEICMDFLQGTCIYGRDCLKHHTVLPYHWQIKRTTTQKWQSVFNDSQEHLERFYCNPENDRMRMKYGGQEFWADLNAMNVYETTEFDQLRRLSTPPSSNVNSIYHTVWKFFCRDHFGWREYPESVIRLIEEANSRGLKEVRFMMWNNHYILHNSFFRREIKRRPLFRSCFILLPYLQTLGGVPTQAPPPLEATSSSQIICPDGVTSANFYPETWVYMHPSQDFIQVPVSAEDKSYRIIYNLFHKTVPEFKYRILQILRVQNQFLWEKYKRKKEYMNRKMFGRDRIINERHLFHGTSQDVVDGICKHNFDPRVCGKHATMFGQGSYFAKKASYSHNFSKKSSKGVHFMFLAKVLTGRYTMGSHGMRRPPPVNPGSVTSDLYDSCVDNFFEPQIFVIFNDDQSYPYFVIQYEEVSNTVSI

Take `C[C@@H](CN[C@@H]1CCN(C2CCN(c3ncc(C(F)(F)F)cn3)CC2)C1=O)Nc1cn[nH]c(=O)c1C(F)(F)F` [Example 26B, 5-(((S)-1-(((R)-2-oxo-1-(1-(5-(trifluoromethyl)pyrimidin-2-yl)piperidin-4-yl)pyrrolidin-3-yl)amino)propan-2-yl)amino)-4-(trifluoromethyl)pyridazin-3(2H)-one]: the IC50 is under 100 nM. The molecule `C[C@@H](COC1CCN(C2CCN(c3ncc(C(F)F)cn3)CC2)C1=O)Oc1cn[nH]c(=O)c1C(F)(F)F` (stereo partly drawn) [Example 27, 5-(((2S)-1-((1-(1-(5-(difluoromethyl)pyrimidin-2-yl)piperidin-4-yl)-2-oxopyrrolidin-3-yl)oxy)propan-2-yl)oxy)-4-(trifluoromethyl)pyridazin-3(2H)-one] had an IC50 of under 100 nM. Under `C[C@@H](COCC(=O)N(C)C1CCN(c2ncc(C(F)(F)F)cn2)CC1)Oc1cn[nH]c(=O)c1Br` [Example 28, (S)-2-(2-((5-bromo-6-oxo-1,6-dihydropyridazin-4-yl)oxy)propoxy)-N-methyl-N-(1-(5-(trifluoromethyl)pyrimidin-2-yl)piperidin-4-yl)acetamide] stands under 100 nM. The molecule `C[C@@H](CN(C)C1CCN(C2CCN(c3ncc(C(F)(F)F)cn3)CC2)C1=O)Nc1cn[nH]c(=O)c1C(F)(F)F` (stereo partly drawn) [Example 29, 5-(((S)-1-(methyl(2-oxo-1-(1-(5-(trifluoromethyl)pyrimidin-2-yl)piperidin-4-yl)pyrrolidin-3-yl)amino)propan-2-yl)amino)-4-(trifluoromethyl)pyridazin-3(2H)-one] displayed an IC50 of under 100 nM. As to `C[C@@H](COC1CCN(C2CCN(c3ccc(C#N)cn3)CC2)C1=O)Oc1cn[nH]c(=O)c1C(F)(F)F` (stereo partly drawn) [Example 30, 6-(4-(2-oxo-3-((S)-2-((6-oxo-5-(trifluoromethyl)-1,6-dihydropyridazin-4-yl)oxy)propoxy)pyrrolidin-1-yl)piperidin-1-yl)nicotinonitrile], the IC50 was under 100 nM.

Turning to `C[C@@H](CO[C@H]1CCN(C2CCN(c3cnc(C(F)(F)F)cn3)CC2)C1=O)Oc1cn[nH]c(=O)c1C(F)(F)F` [Example 31A, 5-(((S)-1-(((S)-2-oxo-1-(1-(5-(trifluoromethyl)pyrazin-2-yl)piperidin-4-yl)pyrrolidin-3-yl)oxy)propan-2-yl)oxy)-4-(trifluoromethyl)pyridazin-3(2H)-one], the IC50 was under 100 nM. `C[C@@H](CO[C@@H]1CCN(C2CCN(c3cnc(C(F)(F)F)cn3)CC2)C1=O)Oc1cn[nH]c(=O)c1C(F)(F)F` [Example 31B, 5-(((S)-1-(((R)-2-oxo-1-(1-(5-(trifluoromethyl)pyrazin-2-yl)piperidin-4-yl)pyrrolidin-3-yl)oxy)propan-2-yl)oxy)-4-(trifluoromethyl)pyridazin-3(2H)-one] registered a half-maximal inhibitory concentration (IC50) of 100 to 1000 nM.

As for `C[C@@H](CO[C@@H]1CCN(C2CCN(c3ncc(C(F)(F)F)cn3)CC2)C1=O)Nc1cn[nH]c(=O)c1Br` [Example 32, 4-bromo-5-(((S)-1-(((R)-2-oxo-1-(1-(5-(trifluoromethyl)pyrimidin-2-yl)piperidin-4-yl)pyrrolidin-3-yl)oxy)propan-2-yl)amino)pyridazin-3(2H)-one], the IC50 is under 100 nM. For `C[C@@H](CO[C@H]1CCCN(C2CCN(c3ncc(C(F)(F)F)cn3)CC2)C1=O)Nc1cn[nH]c(=O)c1C(F)(F)F` [Example 34A, (S)-3-((S)-2-((6-oxo-5-(trifluoromethyl)-1,6-dihydropyridazin-4-yl)amino)propoCyxy)-1′-(5-(trifluoromethyl)pyrimidin-2-yl)-[1,4′-bipiperidin]-2-one] the value was under 100 nM; for `C[C@@H](CO[C@@H]1CCCN(C2CCN(c3ncc(C(F)(F)F)cn3)CC2)C1=O)Nc1cn[nH]c(=O)c1C(F)(F)F` [Example 34B, (R)-3-((S)-2-((6-oxo-5-(trifluoromethyl)-1,6-dihydropyridazin-4-yl)amino)propoxy)-1′-(5-(trifluoromethyl)pyrimidin-2-yl)-[1,4′-bipiperidin]-2-one], under 100 nM. Under `C[C@@H](CO[C@@H]1C(=O)N(C2CCN(c3ncc(C(F)(F)F)cn3)CC2)CC1(C)C)Nc1cn[nH]c(=O)c1C(F)(F)F` [Example 35A, 5-(((S)-1-(((S)-4,4-dimethyl-2-oxo-1-(1-(5-(trifluoromethyl)pyrimidin-2-yl)piperidin-4-yl)pyrrolidin-3-yl)oxy)propan-2-yl)amino)-4-(trifluoromethyl)pyridazin-3(2H)-one] stands at least 1000 nM; under `C[C@@H](CO[C@H]1C(=O)N(C2CCN(c3ncc(C(F)(F)F)cn3)CC2)CC1(C)C)Nc1cn[nH]c(=O)c1C(F)(F)F` [Example 35B, 5-(((S)-1-(((R)-4,4-dimethyl-2-oxo-1-(1-(5-(trifluoromethyl)pyrimidin-2-yl)piperidin-4-yl)pyrrolidin-3-yl)oxy)propan-2-yl)amino)-4-(trifluoromethyl)pyridazin-3(2H)-one], under 100 nM.

Take `N#Cc1ccc(N2CCC(N3CC[C@@H](OCCNc4cn[nH]c(=O)c4C(F)(F)F)C3=O)CC2)nc1` [Example 36A]: the IC50 was under 100 nM. `N#Cc1ccc(N2CCC(N3CC[C@H](OCCNc4cn[nH]c(=O)c4C(F)(F)F)C3=O)CC2)nc1` [Example 36B]: the IC50 was under 100 nM. `C[C@@H]1CN(C2CCN(c3ncc(C(F)(F)F)cn3)CC2)C(=O)[C@H]1OC[C@H](C)Nc1cn[nH]c(=O)c1C(F)(F)F` [Example 37A, 5-(((S)-1-(((3S,4R)-4-methyl-2-oxo-1-(1-(5-(trifluoromethyl)pyrimidin-2-yl)piperidin-4-yl)pyrrolidin-3-yl)oxy)propan-2-yl)amino)-4-(trifluoromethyl)pyridazin-3(2H)-one] had an IC50 of at least 1000 nM.

Turning to `C[C@@H](CO[C@H]1C(=O)N(C2CCN(c3ncc(C(F)(F)F)cn3)CC2)C[C@@H]1C)Nc1cn[nH]c(=O)c1C(F)(F)F` [Example 37B, 5-(((S)-1-(((3R,4S)-4-methyl-2-oxo-1-(1-(5-(trifluoromethyl)pyrimidin-2-yl)piperidin-4-yl)pyrrolidin-3-yl)oxy)propan-2-yl)amino)-4-(trifluoromethyl)pyridazin-3(2H)-one], the IC50 is under 100 nM. As for `C[C@@H](CO[C@@H]1CCN(C2CCN(c3ncc(F)cn3)CC2)C1=O)Nc1cn[nH]c(=O)c1C(F)(F)F` [Example 42, 5-(((S)-1-(((R)-1-(1-(5-fluoropyrimidin-2-yl)piperidin-4-yl)-2-oxopyrrolidin-3-yl)oxy)propan-2-yl)amino)-4-(trifluoromethyl)pyridazin-3(2H)-one], the IC50 was under 100 nM. `C[C@@H](CO[C@@H]1CCN([C@H]2[C@@H]3CN(c4ncc(C(F)(F)F)cn4)C[C@@H]32)C1=O)Nc1cn[nH]c(=O)c1C(F)(F)F` [Example 43, 5-(((S)-1-(((R)-2-oxo-1-((1R,5S,6s)-3-(5-(trifluoromethyl)pyrimidin-2-yl)-3-azabicyclo[3.1.0]hexan-6-yl)pyrrolidin-3-yl)oxy)propan-2-yl)amino)-4-(trifluoromethyl)pyridazin-3(2H)-one] showed an IC50 of under 100 nM. In the case of `Cc1cnc(N2CCC(N3CC[C@@H](OC[C@H](C)Nc4cn[nH]c(=O)c4C(F)(F)F)C3=O)CC2)nc1` [Example 44, 5-(((S)-1-(((R)-1-(1-(5-methylpyrimidin-2-yl)piperidin-4-yl)-2-oxopyrrolidin-3-yl)oxy)propan-2-yl)amino)-4-(trifluoromethyl)pyridazin-3(2H)-one], the 50% inhibitory concentration (IC50) is under 100 nM.
